Data published in article PMC8391127, “Triterpenoid–PEG Ribbons Targeting Selectivity in Pharmacological Effects” (Biomedicines, 2021).
Read-outs that look alike come from different tables or passages of the source. Marks after values point to notes of the source that are not given here.

Columns and labels:
Pseudomonas aeruginosa = assay: Antimicrobial screening, resazurine test; type: cell-based; details: P. aeruginosa; for inhibition at 25 µg/mL: c = 25 µg·mL-1, read-out: Inhibition of the microorganism; for inhibition at 50 µg/mL: c = 50 µg·mL-1, read-out: Inhibition of the microorganism; for inhibition at 100 µg/mL: c = 100 µg·mL-1, read-out: Inhibition of the microorganism
Method: (§1) The resazurine test was used to evaluate this activity.
(§2) The cell inoculum was made in Mueller–Hinton broth (10 mL). Colonies of cells were inoculated from the solid medium that was cultivated for 24 h under optimum conditions. A part of the inoculum was diluted to get suspension with an optical density 0.6 to 0.9 McF. An aliquot amount (1 mL) was taken and diluted with additional volume of the medium (19 mL). The stored solutions of the tested compounds were made at a concentration c = 200 µg.mL^−1. The stored suspensions of the cells, MHB medium, solutions of the antibiotics specific for the given bacteria (vancomycin for S. aureus and E. faecalis, kanamycin for E. coli and P. aeruginosa, and tetracycline for B. cereus), and the solutions of the compounds were pipetted into the microtitration plates. Subsequently, a concentration sequence of the tested compounds was made (c = 100, 50, and 25 µg.mL^−1). The content of the microtitration plates was cultivated for 24 h under optimum conditions for the given bacteria. A solution of resazurine was made, based on a dilution of its stored solution (c = 0.15 mg.mL^−1; 2 mL) into the MHB medium (18 mL). Then, it was pipetted into the microtitration plates that were cultivated for an additional 1 h. Finally, fluorescence measurement (excitation at 560 nm, emission at 590 nm) was made, and the inhibition of the bacterium was determined.
(§3) 2. Antimicrobial screening tests
(§4) Antimicrobial activity of the target molecular ribbons 8a, 12a, 8b, 12b, 4c, 6c, 6d and 8d, and […]
(§5) aeruginosa, Staphylococcus aureus and Enterococcus faecalis. The resazurine test was used to […]
(§6) ribbons which have been achieved in this investigation.
(§7) Table S1. Antimicrobial activity, inhibition of the microorganism [%]
(§8) Comp. Staphylococcus aureus Comp. Escherichia coli […]
(§9) µg·mL-1 µg·mL-1 µg·mL-1 µg·mL-1 µg·mL-1 µg·mL-1
(§10) Comp. Bacillus cereus Comp. Pseudomonas aeruginosa

Staphylococcus aureus = assay: Antimicrobial screening, resazurine test; type: cell-based; details: S. aureus; for inhibition at 25 µg/mL / inhibition at 50 µg/mL / inhibition at 100 µg/mL: Staphylococcus aureus, read-out: Inhibition of the microorganism; for inhibition at 50 µg/mL: c = 50 µg·mL-1; for inhibition at 100 µg/mL: c = 100 µg·mL-1
Method: as §1, §2, §3, §4, §5, §6, §7, §8, §9, §10

Bacillus cereus = assay: Antimicrobial screening, resazurine test; type: cell-based; details: Bacillus cereus, B. cereus, read-out: Inhibition of the microorganism; for inhibition at 25 µg/mL: c = 25 µg·mL-1; for inhibition at 50 µg/mL: c = 50 µg·mL-1; for inhibition at 100 µg/mL: c = 100 µg·mL-1
Method: as §1, §2, §3, §4, §5, §6, §7, §8, §9, §10

Escherichia coli = assay: Antimicrobial screening, resazurine test; type: cell-based; details: E. coli; for inhibition at 25 µg/mL / inhibition at 50 µg/mL / inhibition at 100 µg/mL: Escherichia coli, read-out: Inhibition of the microorganism; for inhibition at 50 µg/mL: c = 50 µg·mL-1; for inhibition at 100 µg/mL: c = 100 µg·mL-1
Method: as §1, §2, §3, §4, §5, §6, §7, §8, §9, §10

Enterococcus faecalis = assay: Antimicrobial screening, resazurine test; type: cell-based; details: Enterococcus faecalis, E. faecalis, read-out: Inhibition of the microorganism; for inhibition at 25 µg/mL: c = 25 µg·mL-1; for inhibition at 50 µg/mL: c = 50 µg·mL-1; for inhibition at 100 µg/mL: c = 100 µg·mL-1
Method: as §1, §2, §3, §4, §5, §6, §7, §8, §9, §10

[1] = Ability to form supramolecular gel; type: physicochemical; details: 1% w/v in solvent, ultrasound 30 min, heated to boiling, cooled to r.t. 24 h
Method: The solutions of the studied compounds 8a, 12a, 8b, 12b, 4c, 6c, 6d, and 8d (1%, w/v) in the appropriate solvent were mixed with ultrasound for 30 min, then heated to the boiling points of the used solvents, and then allowed to cool down to the r.t. for 24 h. An example of the resulting gels that were produced from 8a, 4c, 6c, and 6d is shown in the Supplementary Material, Figure S1.

[2] = Cytotoxicity screening test; type: cell-based; details: human
Text: (§11) Description of the experimental procedure used in the cytotoxicity screening test was already published. The following cancer cell lines were used in the investigation: T-lymphoblastic leukemia, CEM; breast carcinoma, MCF7; cervical carcinoma, HeLa; and malignant melanoma, G-361. Human foreskin fibroblasts, BJ, were used as reference cells. All of the above cell lines were obtained from the American Type Culture Collection (Manassas, VA, USA). African green monkey kidney Vero cells were obtained from the European Collection of Cell Cultures (Salisbury, UK) and human T-cell leukemia MT-4 cells were obtained through the NIH AIDS Reagent Program, Division of AIDS, NIAID, NIH, from Dr. Douglas Richman. All cells, but MT-4 cells, were cultured in DMEM (Dulbecco’s Modified Eagle Medium, Sigma, St. Louis, MO, USA). MT-4 cells were maintained in RPMI1640 medium. Media used were supplemented with 10% fetal bovine serum, 2 mM L-glutamine, and 1% penicillin–streptomycin (all Sigma, St. Louis, MO, USA). The cell lines were maintained under standard cell culture conditions at 37 °C and 5% CO2 in a humid environment. Cells were subcultured twice or three times a week using the standard trypsinization procedure.

[3] = Cytotoxicity screening test, reference cells; type: cell-based; details: BJ foreskin fibroblasts; BJ human fibroblasts
Text: as §11

[4] = Self-assembly by UV-VIS spectrometry in methanol/water mixtures; type: physicochemical; details: 0-140 h
Method: The self-assembly of the selected compounds 8a, 12a, 8b, 12b, 4c, 6c, 6d, and 8d was measured using UV absorption in methanol/water mixtures with a constant concentration of the studied compound for 7 days in one-hour intervals on the first day, and in 24 h intervals all following days. The stock solutions of the studied compounds were prepared at a concentration of 1 mg·mL^−1 in water. Then, a series of methanol/water mixtures were prepared starting from a methanol/water ratio 100/0 down to 0/100 in 20% steps. The stock solutions of the studied compounds (0.15 mL) were added separately to each vial containing methanol/water mixtures (3 mL), and the UV spectra were recorded in the wavelength range of 200–400 nm. […] For the compounds 8a, 12a, 12b and 6d, the details are presented in the Supplementary Material; see Figure S2.
Supramolecular self-assembly was studied on the basis of the UV-VIS spectra of the compounds in several methanol/water mixtures stepwise during the time interval 0-140 h. Here we show compounds 8a, 12a, 12b and 6d as examples, with which the irregularities in the UV-VIS spectra were either well pronounced (8a and 12a; Figure S2), or no substantial irregularity was detected (12b and 6d).
Figure S2. UV-VIS spectra of 8a (top) and 12a (bottom) measured in the interval 0-140 h.
During that time interval a new maximum appeared at 300 nm wavelength, and the shape of the curves is different than in any of the other intervals of measurement. […]

[5] = test system: HIV-1 (laboratory strain NL4-3); assay: microbe, parasite or virus in culture; type: cell-based
Method: The cell lines were maintained under standard cell culture conditions at 37 °C and 5% CO2 in a humid environment. Cells were subcultured twice or three times a week using the standard trypsinization procedure.

| Gel formation [1] | Irregularity in UV-VIS spectra (self-assembly) [4] | SMILES | inhibition at 25 µg/mL (Pseudomonas aeruginosa) | inhibition at 50 µg/mL (Pseudomonas aeruginosa) | inhibition at 100 µg/mL (Pseudomonas aeruginosa) | inhibition at 25 µg/mL (Staphylococcus aureus; c = 25 µg·mL-1) | inhibition at 50 µg/mL (Staphylococcus aureus) | inhibition at 100 µg/mL (Staphylococcus aureus) | inhibition at 25 µg/mL (Bacillus cereus) | inhibition at 50 µg/mL (Bacillus cereus) | inhibition at 100 µg/mL (Bacillus cereus) | inhibition at 25 µg/mL (Escherichia coli; c = 25 µg·mL-1) | inhibition at 50 µg/mL (Escherichia coli) | inhibition at 100 µg/mL (Escherichia coli) | inhibition at 25 µg/mL (Enterococcus faecalis) | inhibition at 50 µg/mL (Enterococcus faecalis) | inhibition at 100 µg/mL (Enterococcus faecalis) | further results |
| --- | --- | --- | --- | --- | --- | --- | --- | --- | --- | --- | --- | --- | --- | --- | --- | --- | --- | --- |
| produced a gel in glycerol | – | CC1(C)C=C2[C@H]3CC[C@@H]4[C@@]5(C)CCC(=O)C(C)(C)[C@@H]5CC[C@@]4(C)[C@]3(C)CC[C@@]2(C(=O)NCCOCCOCCOCCn2cc(CO[C@H]3CC[C@]4(C)[C@H]5CC=C6C7CC(C)(C)CC[C@]7(C(=O)O)CC[C@@]6(C)[C@]5(C)CC[C@H]4C3(C)C)nn2)CC1 (some centres unmarked) [6c] | 12 ± 1.8% | 69 ± 10.4% | 60 ± 9% | 13 ± 2% | 51 ± 7.7% | 27 ± 4% | 7 ± 1% | 19 ± 2.9% | 13 ± 2% | 10 ± 1.5% | 18 ± 2.7% | 30 ± 4.5% | 0 to 1% | 25 ± 3.8% | 36 ± 5.4% | – |
| produced a gel in glycerol | No substantial irregularity was detected | CC1(C)C=C2C3CC[C@@H]4[C@@]5(C)CC[C@H](OCc6cn(CCOCCOCCOCCNC(=O)[C@]78CCC(C)(C)C=C7[C@H]7CC[C@@H]9[C@@]%10(C)CCC(=O)C(C)(C)[C@@H]%10CC[C@@]9(C)[C@]7(C)CC8)nn6)C(C)(C)[C@@H]5CC[C@@]4(C)[C@]3(C)CC[C@@]2(C(=O)O)CC1 (some centres unmarked) [6d] | 0 to 1% | 0 to 1% | 0 to 1% | 25 ± 3.8% | 31 ± 4.7% | 0 to 1% | 1 ± 0.2% | 0 to 1% | 3 ± 0.5% | 9 ± 1.4% | 13 ± 2% | 0 to 1% | 2 ± 0.3% | 14 ± 2.1% | 28 ± 4.2% | IC50 ([2]; CEM T-lymphoblastic leukemia cells): > 50 µM; IC50 ([2]; G-361 malignant melanoma cells): 20 ± 0.6 µM; IC50 ([2]; HeLa cervical carcinoma cells): > 50 µM; IC50 ([2]; MCF7 breast carcinoma cells): > 50 µM; IC50 [3]: > 50 µM |
| produced a gel in ethylene glycol | Irregularity was detected | CC1(C)CC[C@]2(C(=O)O)CC[C@]3(C)C(=CC[C@@H]4[C@@]5(C)CC[C@H](OCc6cn(CCOCCOCCOCCNC(=O)[C@]78CCC(C)(C)CC7C7=CC[C@@H]9[C@@]%10(C)CC[C@H](O)C(C)(C)[C@@H]%10CC[C@@]9(C)[C@]7(C)CC8)nn6)C(C)(C)[C@@H]5CC[C@]43C)C2C1 (some centres unmarked) [8a] | 21 ± 3.2% | 17 ± 2.6% | 14 ± 2.1% | > 50% | 55 ± 8.3% | 68 ± 10.2% | 0 to 1% | 0 to 1% | 0 to 1% | > 50% | 24 ± 3.6% | 0 to 1% | 17 ± 2.6% | 28 ± 4.2% | 32 ± 4.8% | Inhibition of the microorganism (Staphylococcus aureus; c = 25 µg·mL-1): 52 ± 7.8 ^e %; Inhibition of the microorganism (Escherichia coli; c = 25 µg·mL-1): 51 ± 7.7 ^e %; EC50 ([5]; Human immunodeficiency virus 1, NL43, MT4, HIV-1 NL4-3 in MT-4 cells, read-out: EC50 ± SE against HIV-1): 50.6 ± 7.8 µM |
| – | – | CC(C)OC(=O)[C@H](C)N[P@](=O)(CO[C@H](C)Cn1cnc2c(N)ncnc21)Oc1ccccc1 [tenofovir alafenamide, Tenofovir alafenamide, reference compound] | – | – | – | – | – | – | – | – | – | – | – | – | – | – | – | EC50 ([5]; Human immunodeficiency virus 1, NL43, MT4, read-out: EC50 ± SE against HIV-1): 0.0097 ± 0.0023 µM |
